This data set can be described thus: Drug levels in plasma by LC-MS/MS as measure of adherence (Example 2). The format is in vivo, human. As to conditions: TDF-FTC group, first 113 participants enrolled; limit of detection 0.1 ng/ml tenofovir, 0.4 ng/ml FTC. As to the method: Pill count was the first measure of adherence. Participants were asked to return their study-drug bottles at each visit, and a pill count of unused medication was performed. We also measured drug levels in plasma in the first participants who were enrolled. Plasma was tested for the presence of tenofovir and FTC with the use of a validated liquid chromatography-tandem mass spectrometry method with a limit of detection of 0.1 ng per milliliter for tenofovir and 0.4 ng per milliliter for FTC. This plasma assay was able to detect drugs up to 9 days after intake.

The values below come from patent US20180015111A1, “METHODS FOR ON DEMAND PRE-EXPOSURE PROPHYLACTIC TREATMENT OF HIV INFECTION” (INSERM (INSTITUT NATIONAL DE LA SANTE ET DE LA RECHERCHE …, priority 2015, published 2018).

`Nc1nc(=O)n([C@@H]2CS[C@H](CO)O2)cc1F` [FTC, 4-amino-5-fluoro-1-[(2R,5S)-2-(hydroxymethyl)-1,3-oxathiolan-5-yl]-1,2-dihydropyrimidin-2-one]: the “rate of detection in plasma” value was found to be 82%.
Take `C[C@H](Cn1cnc2c(N)ncnc21)OCP(=O)(O)O` [tenofovir, ({[(2R)-1-(6-amino-9H-purin-9-yl)propan-2-yl]oxy}methyl)phosphonic acid]: the “rate of detection in plasma” value was 86%.
